In patent publication US20230072683A1, “PYRIDO-PYRIMIDIN DERIVATIVES AND PHARMACEUTICAL COMPOSITION, FOR USE IN PREVENTING OR TREATING PI3 KINASE RELATED DISEASES, COMPRISING SAME AS ACTIVE INGREDIENT” (BORYUNG PHARMACEUTICAL CO., LTD, priority 2019, published 2023) one finds inhibition data, which are given here for 21 molecules.

Assay [1] has as its target PI3K-δ (PI3K(p1108/p857) (h)) (Homo sapiens, UniProt O00329). Put plainly: Evaluation of inhibitory activity against PI3K-δ (HTRF kinase assay). To be noted: compound concentration 0.01 μM; read-out: EXP_VALUE(% Inhibition) PI3K-δ 0.01 μM. In kind it is biochemical. The method in brief:
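HTRF read-out (665/620 nm ratio ×10000) used Eu-labelled anti-GST, GST-tagged GRP1 PH domain and streptavidin-allophycocyanin after EDTA/PIP3 stop.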

The target in another assay is DNA-PK(h) (Homo sapiens, UniProt P78527). Put plainly: Evaluation of inhibitory activity against DNA-PK (HTRF kinase assay, GST-cMyc-p53 substrate). To be noted: compound concentration 0.01 μM; read-out: EXP_VALUE(% Inhibition) DNA-PK(h) 0.01 μM. The assay is classed as biochemical. A digest of the protocol:
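Human DNA-PK with 50 μM GST-cMyc-p53 substrate; reaction started with Mg/ATP, run 30 min at room temperature, stopped with EDTA. Phospho-Ser15 p53 detected by HTRF (Eu anti-phospho-Ser15, d2 anti-GST), signal = 10000×(Em 665/Em 620).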

Usually inhibition stands for the relative decrease from the control value, in per cent.

PI3K-δ (PI3K(p1108/p857) (h)), sequence (O00329 whole entry, the tested form may be a part): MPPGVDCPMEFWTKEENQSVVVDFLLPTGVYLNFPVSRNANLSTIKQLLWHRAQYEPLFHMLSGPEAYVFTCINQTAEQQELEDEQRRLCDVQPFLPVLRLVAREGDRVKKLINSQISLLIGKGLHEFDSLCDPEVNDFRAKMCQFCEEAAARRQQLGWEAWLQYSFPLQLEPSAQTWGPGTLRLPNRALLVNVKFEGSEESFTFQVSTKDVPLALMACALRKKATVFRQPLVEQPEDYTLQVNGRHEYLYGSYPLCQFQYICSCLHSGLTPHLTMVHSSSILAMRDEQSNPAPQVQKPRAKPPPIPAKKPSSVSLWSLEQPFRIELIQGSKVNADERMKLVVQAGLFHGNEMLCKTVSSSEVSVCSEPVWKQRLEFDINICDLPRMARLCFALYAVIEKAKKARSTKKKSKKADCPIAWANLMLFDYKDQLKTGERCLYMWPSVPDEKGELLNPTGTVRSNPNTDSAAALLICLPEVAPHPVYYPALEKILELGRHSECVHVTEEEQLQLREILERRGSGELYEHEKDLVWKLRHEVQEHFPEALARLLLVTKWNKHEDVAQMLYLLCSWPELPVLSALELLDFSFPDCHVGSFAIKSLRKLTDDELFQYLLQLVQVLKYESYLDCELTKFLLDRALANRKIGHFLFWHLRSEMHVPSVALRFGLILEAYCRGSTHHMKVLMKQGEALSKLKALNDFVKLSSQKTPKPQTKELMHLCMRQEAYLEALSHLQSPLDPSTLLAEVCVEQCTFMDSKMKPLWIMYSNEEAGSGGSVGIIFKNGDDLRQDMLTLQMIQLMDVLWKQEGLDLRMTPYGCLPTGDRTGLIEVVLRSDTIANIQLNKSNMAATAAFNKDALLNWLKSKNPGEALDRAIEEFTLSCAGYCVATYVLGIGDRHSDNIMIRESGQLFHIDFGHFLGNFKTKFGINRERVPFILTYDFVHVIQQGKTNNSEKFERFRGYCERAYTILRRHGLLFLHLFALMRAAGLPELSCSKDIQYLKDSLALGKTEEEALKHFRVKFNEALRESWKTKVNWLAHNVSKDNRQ
PI3K-δ (PI3K(p1108/p857) (h)), sequence (P27986 whole entry partner, the tested form may be a part): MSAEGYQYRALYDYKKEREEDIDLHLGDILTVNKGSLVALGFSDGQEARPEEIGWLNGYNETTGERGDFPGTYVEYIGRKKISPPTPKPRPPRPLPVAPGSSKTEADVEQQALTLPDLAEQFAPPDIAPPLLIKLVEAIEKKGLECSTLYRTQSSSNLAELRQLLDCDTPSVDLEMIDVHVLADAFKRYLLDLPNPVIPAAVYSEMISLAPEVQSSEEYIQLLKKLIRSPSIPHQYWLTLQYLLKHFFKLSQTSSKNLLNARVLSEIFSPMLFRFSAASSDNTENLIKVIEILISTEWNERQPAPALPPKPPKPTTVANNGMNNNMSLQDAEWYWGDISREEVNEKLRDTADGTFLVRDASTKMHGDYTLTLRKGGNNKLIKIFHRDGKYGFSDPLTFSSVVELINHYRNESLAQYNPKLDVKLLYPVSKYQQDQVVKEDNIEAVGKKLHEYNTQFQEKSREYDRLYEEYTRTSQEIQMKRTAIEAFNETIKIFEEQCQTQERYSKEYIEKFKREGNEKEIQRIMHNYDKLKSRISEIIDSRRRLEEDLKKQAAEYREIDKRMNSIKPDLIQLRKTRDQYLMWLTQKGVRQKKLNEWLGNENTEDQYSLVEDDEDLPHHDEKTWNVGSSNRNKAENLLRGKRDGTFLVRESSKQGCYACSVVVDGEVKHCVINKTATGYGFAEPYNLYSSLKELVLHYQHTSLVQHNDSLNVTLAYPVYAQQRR

For `COc1cc(OC)cc(-c2cccc3c(Cl)c([C@H](C)Nc4ncnc5[nH]ccc(=O)c45)n(-c4ccccc4)c(=O)c23)c1` [Example 169, (S)-4-((1-(4-chloro-8-(3,5-dimethoxyphenyl)-1-oxo-2-phenyl-1,2-dihydroisoquinolin-3-yl)ethyl)amino)pyrido[2,3-d]pyrimidin-5(8H)-one], the inhibition at 0.01 µM worked out at 40% in assay [1] and 67% at DNA-PK(h).
With `COc1cc(-c2cccc3c(Cl)c([C@H](C)Nc4ncnc5[nH]ccc(=O)c45)n(-c4ccccc4)c(=O)c23)cnc1OC` [Example 170, (S)-4-((1-(4-chloro-8-(5,6-dimethoxypyridin-3-yl)-1-oxo-2-phenyl-1,2-dihydroisoquinolin-3-yl)ethyl)amino)pyrido[2,3-d]pyrimidin-5(8H)-one], the inhibition at 0.01 µM in assay [1] is 35%; at DNA-PK(h) it was 66%.
For `COc1ncc(-c2cccc3c(Cl)c([C@H](C)Nc4ncnc5[nH]ccc(=O)c45)n(-c4ccccc4)c(=O)c23)cn1` [Example 171, (S)-4-((1-(4-chloro-8-(2-methoxypyrimidin-5-yl)-1-oxo-2-phenyl-1,2-dihydroisoquinolin-3-yl)ethyl)amino)pyrido[2,3-d]pyrimidin-5(8H)-one] the same measures were 58% and 62%.
For `C[C@H](Nc1ncnc2[nH]ccc(=O)c12)c1c(Cl)c2cccc(-c3ccc(N)nc3)c2c(=O)n1-c1ccccc1` [Example 172, (S)-4-((1-(8-(6-aminopyridin-3-yl)-4-chloro-1-oxo-2-phenyl-1,2-dihydroisoquinolin-3-yl)ethyl)amino)pyrido[2,3-d]pyrimidin-5(8H)-one] the same measures were 53% and 82%.
For `C[C@H](Nc1ncnc2[nH]ccc(=O)c12)c1c(Cl)c2cccc(-c3cccc(N4CCOCC4)c3)c2c(=O)n1-c1ccccc1` [Example 173, (S)-4-((1-(4-chloro-8-(3-morpholinophenyl)-1-oxo-2-phenyl-1,2-dihydroisoquinolin-3-yl)ethyl)amino)pyrido[2,3-d]pyrimidin-5(8H)-one] the same measures were 40% and 86%.
Regarding `C[C@H](Nc1ncnc2[nH]ccc(=O)c12)c1c(Cl)c2cccc(-c3cnc(N4CCOCC4)nc3)c2c(=O)n1-c1ccccc1` [Example 174, (S)-4-((1-(4-chloro-8-(2-morpholinopyrimidin-5-yl)-1-oxo-2-phenyl-1,2-dihydroisoquinolin-3-yl)ethyl)amino)pyrido[2,3-d]pyrimidin-5(8H)-one], the results for the inhibition at 0.01 µM (in assay [1]; at DNA-PK(h)) were 65% and 67%, respectively.
The matching figures for `C[C@H](Nc1ncnc2[nH]ccc(=O)c12)c1c(Cl)c2cccc(-c3ccc(N4CCOCC4)nc3)c2c(=O)n1-c1ccccc1` [Example 175, (S)-4-((1-(4-chloro-8-(6-morpholinopyridin-3-yl)-1-oxo-2-phenyl-1,2-dihydroisoquinolin-3-yl)ethyl)amino)pyrido[2,3-d]pyrimidin-5(8H)-one]: 70% and 80%.
For `C[C@H](Nc1ncnc2[nH]ccc(=O)c12)c1c(Cl)c2cccc(-c3ccc(C4CCOCC4)cc3)c2c(=O)n1-c1ccccc1` [Example 176, (S)-4-((1-(4-chloro-1-oxo-2-phenyl-8-(4-(tetrahydro-2H-pyran-4-yl)phenyl)-1,2-dihydroisoquinolin-3-yl)ethyl)amino)pyrido[2,3-d]pyrimidin-5(8H)-one] the same measures were 19% and 48%.
The matching figures for `COc1cc(-c2cccc3c(Cl)c([C@H](C)Nc4ncnc5[nH]ccc(=O)c45)n(-c4ccccc4)c(=O)c23)cc(OC)c1C` [Example 177, (S)-4-((1-(4-chloro-8-(3,5-dimethoxy-4-methylphenyl)-1-oxo-2-phenyl-1,2-dihydroisoquinolin-3-yl)ethyl)amino)pyrido[2,3-d]pyrimidin-5(8H)-one]: 28% and 54%.
On to `C[C@H](Nc1ncnc2[nH]ccc(=O)c12)c1c(Cl)c2cccc(-c3ccc([Si](C)(C)C)cc3)c2c(=O)n1-c1ccccc1` [Example 178, (S)-4-((1-(4-chloro-1-oxo-2-phenyl-8-(4-(trimethylsilyl)phenyl)-1,2-dihydroisoquinolin-3-yl)ethyl)amino)pyrido[2,3-d]pyrimidin-5(8H)-one], for which the inhibition at 0.01 µM in assay [1] is 9%; on DNA-PK(h), -4%.
The matching figures for `C[C@H](Nc1ncnc2[nH]ccc(=O)c12)c1c(Cl)c2cccc(-c3ccc(N4CCN(C)CC4)cc3)c2c(=O)n1-c1ccccc1` [Example 179, (S)-4-((1-(4-chloro-8-(4-(4-methylpiperazin-1-yl)phenyl)-1-oxo-2-phenyl-1,2-dihydroisoquinolin-3-yl)ethyl)amino)pyrido[2,3-d]pyrimidin-5(8H)-one]: 86% and 91%.
The matching figures for `CC(C)Oc1cc(-c2cccc3c(Cl)c([C@H](C)Nc4ncnc5[nH]ccc(=O)c45)n(-c4ccccc4)c(=O)c23)ccn1` [Example 180, (S)-4-((1-(4-chloro-8-(2-isopropoxypyridin-4-yl)-1-oxo-2-phenyl-1,2-dihydroisoquinolin-3-yl)ethyl)amino)pyrido[2,3-d]pyrimidin-5(8H)-one]: 83% and 59%.
For the molecule `C[C@H](Nc1ncnc2[nH]ccc(=O)c12)c1c(Cl)c2cccc(-c3ccc(C(F)(F)F)nc3)c2c(=O)n1-c1ccccc1` [Example 181, (S)-4-((1-(4-chloro-1-oxo-2-phenyl-8-(6-(trifluoromethyl)pyridin-3-yl)-1,2-dihydroisoquinolin-3-yl)ethyl)amino)pyrido[2,3-d]pyrimidin-5(8H)-one], the inhibition at 0.01 µM in assay [1] stood at 101%; at DNA-PK(h), 61%.
For `CC(C)Oc1ncc(-c2cccc3c(Cl)c([C@H](C)Nc4ncnc5[nH]ccc(=O)c45)n(-c4ccccc4)c(=O)c23)cn1` [Example 182, (S)-4-((1-(4-chloro-8-(2-isopropoxypyrimidin-5-yl)-1-oxo-2-phenyl-1,2-dihydroisoquinolin-3-yl)ethyl)amino)pyrido[2,3-d]pyrimidin-5(8H)-one] the same measures were 85% and 64%.
For `CCOc1ccc(-c2cccc3c(Cl)c([C@H](C)Nc4ncnc5[nH]ccc(=O)c45)n(-c4ccccc4)c(=O)c23)cn1` [Example 183, (S)-4-((1-(4-chloro-8-(6-ethoxypyridin-3-yl)-1-oxo-2-phenyl-1,2-dihydroisoquinolin-3-yl)ethyl)amino)pyrido[2,3-d]pyrimidin-5(8H)-one] the same measures were 85% and 68%.
The matching figures for `C[C@H](Nc1ncnc2[nH]ccc(=O)c12)c1c(Cl)c2cccc(-c3cnc(OCC(F)(F)F)nc3)c2c(=O)n1-c1ccccc1` [Example 184, (S)-4-((1-(4-chloro-1-oxo-2-phenyl-8-(2-(2,2,2-trifluoroethoxy)pyrimidin-5-yl)-1,2-dihydroisoquinolin-3-yl)ethyl)amino)pyrido[2,3-d]pyrimidin-5(8H)-one]: 78% and 38%.
Take `C[C@H](Nc1ncnc2[nH]ccc(=O)c12)c1c(Cl)c2cccc(-c3ccc(Oc4ccccc4)nc3)c2c(=O)n1-c1ccccc1` [Example 185, (S)-4-((1-(4-chloro-1-oxo-8-(6-phenoxypyridin-3-yl)-2-phenyl-1,2-dihydroisoquinolin-3-yl)ethyl)amino)pyrido[2,3-d]pyrimidin-5(8H)-one]: the figures for the inhibition at 0.01 µM (in assay [1]; on DNA-PK(h)) were 95% and 33%, respectively.
For `COc1ncc(-c2cccc3c(Cl)c([C@H](C)Nc4ncnc5[nH]ccc(=O)c45)n(-c4ccccc4)c(=O)c23)cc1F` [Example 186, (S)-4-((1-(4-chloro-8-(5-fluoro-6-methoxypyridin-3-yl)-1-oxo-2-phenyl-1,2-dihydroisoquinolin-3-yl)ethyl)amino)pyrido[2,3-d]pyrimidin-5(8H)-one] the same measures were 94% and 49%.
With `COc1ncc(-c2cccc3c(Cl)c([C@H](C)Nc4ncnc5[nH]ccc(=O)c45)n(-c4ccccc4)c(=O)c23)cc1Cl` [Example 187, (S)-4-((1-(4-chloro-8-(5-chloro-6-methoxypyridin-3-yl)-1-oxo-2-phenyl-1,2-dihydroisoquinolin-3-yl)ethyl)amino)pyrido[2,3-d]pyrimidin-5(8H)-one], the inhibition at 0.01 µM was determined as 79% in assay [1] and 45% at DNA-PK(h).
For `CCOc1ncc(-c2cccc3c(Cl)c([C@H](C)Nc4ncnc5[nH]ccc(=O)c45)n(-c4ccccc4)c(=O)c23)cn1` [Example 188, (S)-4-((1-(4-chloro-8-(2-ethoxypyrimidin-5-yl)-1-oxo-2-phenyl-1,2-dihydroisoquinolin-3-yl)ethyl)amino)pyrido[2,3-d]pyrimidin-5(8H)-one] the same measures were 101% and 67%.
The matching figures for `C[C@H](Nc1ncnc2[nH]ccc(=O)c12)c1c(Cl)c2cccc(-c3ccnc(N4CCOCC4)c3)c2c(=O)n1-c1ccccc1` [Example 190, (S)-4-((1-(4-chloro-8-(2-morpholinopyridin-4-yl)-1-oxo-2-phenyl-1,2-dihydroisoquinolin-3-yl)ethyl)amino)pyrido[2,3-d]pyrimidin-5(8H)-one]: 87% and 85%.
